Earlier results, collected in article PMC8583718, “Transient Fluorescence Labeling: Low Affinity—High Benefits” (International Journal of Molecular Sciences, 2021).
“And” between values parts separate entries of the source, which are not always exact repeats. Equal values may be shown once. Read-outs that look alike come from different tables or passages of the source. Blank lines part the entries; values can stand above or below the molecule they belong to.

What was measured:
[1] = biological target: dimeric transcription factors LmrR and RamR; set-up: method as in PMID 33913682; conditions: modified LmrR and RamR
mFAP2 = biological target: mFAP2; set-up: method as in PMID 30209393; conditions: mFAP2 with DFHBI; read-out: dissociation constant
mFAP1 = biological target: mFAP1; set-up: method as in PMID 30209393; conditions: mFAP1 with DFHBI; read-out: dissociation constant
Y-FAST = system: Y-FAST; set-up: method as in PMID 26711992
DNA = biological target: DNA; set-up: method as in PMID 26423723; conditions: staining of DNA
UnaG = biological target: UnaG; set-up: method as in PMID 23768684; conditions: bilirubin–UnaG
actin structures = system: actin structures; set-up: method as in PMID 26317264; conditions: compared among actin tags
G-actin = system: G-actin; set-up: method as in PMID 18536722; conditions: G-actin compared with F-actin
F-actin [2] = biological target: F-actin; set-up: method as in PMID 18536722
F-actin [3] = biological target: F-actin; set-up: method as in PMID 15826935; conditions: binding to F-actin
microtubules [4] = biological target: microtubules; set-up: method as in PMID 29662074; conditions: interaction with microtubules
[5] = biological target: protein–fluorogen complexes; conditions: UnaG system
microtubules [6] = biological target: microtubules; set-up: method as in PMID 12773533; conditions: interaction with microtubules

Molecule: CC1=N/C(=C\c2cc(F)c(O)c(F)c2)C(=O)N1C [DFHBI, 3,5-difluoro-4-hydroxybenzylidene imidazolinone]
Dissociation constants [1]: submicromoles to several micromoles
Kd (mFAP2): 560 nM
Kd (mFAP1): 180 nM

Molecule: Cc1cc(C=C2SC(=S)NC2=O)ccc1O [HMBR, 4-hydroxy-3-methylbenzylidene rhodanine]
residence time in the complex (Y-FAST; 25 °C, HMBR–Y-FAST): 160 ms
Kd (Y-FAST; HMBR in complex with Y-FAST): ~130 nM

Molecule: CN1CCN(c2ccc3nc(-c4ccc5nc(-c6ccc(OCCCCNC(=O)c7ccc(C(=O)[O-])c(C8=C9C=CC(=[N+](C)C)C=C9[Si](C)(C)c9cc(N(C)C)ccc98)c7)cc6)[nH]c5c4)[nH]c3c2)CC1 [SiR-Hoechst]
Kd (DNA): 8400 nM

Molecule: F-tractin: residues 10–52 of rat inositol 1,4,5-triphosphate-3-kinase A (MARPRGAGPCSPGLERAPRRSVGELRLLFEARCAAVAAAAAAG; UniProt P17105 10-52, looked up, fragment)
exchange rate (actin structures): highest exchange rate among all actin tags

Molecule: Lifeact: short (17 amino acids) fragment of actin filament-binding protein Abp140 from Saccharomyces cerevisiae
higher affinity to G-actin (G-actin): 10 fold
Kd (F-actin [2]; affinity to F-actin): ~2200 nM and 2200 nM
exchange of probes (F-actin [2]; on F-actin): ≤ 0.4 s

B2: MAP7: microtubule-associated protein (protein, UniProt Q14244 2-749, looked up)
Ensconsin: AELGAGGDGHRGGDGAVRSETAPDSYKVQDKKNASSRPASAISGQNNNHSGNKPDPPPVLRVDDRQRLARERREEREKQLAAREIVWLEREERARQHYEKHLEERKKRLEEQRQKEERRRAAVEEKRRQRLEEDKERHEAVVRRTMERSQKPKQKHNRWSWGGSLHGSPSIHSADPDRRSVSTMNLSKYVDPVISKRLSSSSATLLNSPDRARRLQLSPWESSVVNRLLTPTHSFLARSKSTAALSGEAASCSPIIMPYKAAHSRNSMDRPKLFVTPPEGSSRRRIIHGTASYKKERERENVLFLTSGTRRAVSPSNPKARQPARSRLWLPSKSLPHLPGTPRPTSSLPPGSVKAAPAQVRPPSPGNIRPVKREVKVEPEKKDPEKEPQKVANEPSLKGRAPLVKVEEATVEERTPAEPEVGPAAPAMAPAPASAPAPASAPAPAPVPTPAMVSAPSSTVNASASVKTSAGTTDPEEATRLLAEKRRLAREQREKEERERREQEELERQKREELAQRVAEERTTRREEESRRLEAEQAREKEEQLQRQAEERALREREEAERAQRQKEEEARVREEAERVRQEREKHFQREEQERLERKKRLEEIMKRTRRTEATDKKTSDQRNGDIAKGALTGGTEVSALPCTTNAPGNGKPVGSPHVVTSHQSKVTVESTPDLEKQPNENGVSVQNENFEEIINLPIGSKPSRLDVTNSESPEIPLNPILAFDDEGTLGPLPQVDGVQTQQTAEVI
Kd (microtubules [4]): ~470 nM

B4: MAP4: microtubule-associated protein (protein, UniProt P27816 2-1152, looked up)
Microtubule-associated …: ADLSLADALTEPSPDIEGEIKRDFIATLEAEAFDDVVGETVGKTDYIPLLDVDEKTGNSESKKKPCSETSQIEDTPSSKPTLLANGGHGVEGSDTTGSPTEFLEEKMAYQEYPNSQNWPEDTNFCFQPEQVVDPIQTDPFKMYHDDDLADLVFPSSATADTSIFAGQNDPLKDSYGMSPCNTAVVPQGWSVEALNSPHSESFVSPEAVAEPPQPTAVPLELAKEIEMASEERPPAQALEIMMGLKTTDMAPSKETEMALAKDMALATKTEVALAKDMESPTKLDVTLAKDMQPSMESDMALVKDMELPTEKEVALVKDVRWPTETDVSSAKNVVLPTETEVAPAKDVTLLKETERASPIKMDLAPSKDMGPPKENKKETERASPIKMDLAPSKDMGPPKENKIVPAKDLVLLSEIEVAQANDIISSTEISSAEKVALSSETEVALARDMTLPPETNVILTKDKALPLEAEVAPVKDMAQLPETEIAPAKDVAPSTVKEVGLLKDMSPLSETEMALGKDVTPPPETEVVLIKNVCLPPEMEVALTEDQVPALKTEAPLAKDGVLTLANNVTPAKDVPPLSETEATPVPIKDMEIAQTQKGISEDSHLESLQDVGQSAAPTFMISPETVTGTGKKCSLPAEEDSVLEKLGERKPCNSQPSELSSETSGIARPEEGRPVVSGTGNDITTPPNKELPPSPEKKTKPLATTQPAKTSTSKAKTQPTSLPKQPAPTTIGGLNKKPMSLASGLVPAAPPKRPAVASARPSILPSKDVKPKPIADAKAPEKRASPSKPASAPASRSGSKSTQTVAKTTTAAAVASTGPSSRSPSTLLPKKPTAIKTEGKPAEVKKMTAKSVPADLSRPKSTSTSSMKKTTTLSGTAPAAGVVPSRVKATPMPSRPSTTPFIDKKPTSAKPSSTTPRLSRLATNTSAPDLKNVRSKVGSTENIKHQPGGGRAKVEKKTEAAATTRKPESNAVTKTAGPIASAQKQPAGKVQIVSKKVSYSHIQSKCGSKDNIKHVPGGGNVQIQNKKVDISKVSSKCGSKANIKHKPGGGDVKIESQKLNFKEKAQAKVGSLDNVGHLPAGGAVKTEGGGSEAPLCPGPPAGEEPAISEAAPEAGAPTSASGLNGHPTLSGGGDQREAQTLDSQIQETSI
Kd (microtubules [6]): ~300 nM

The remaining lines, values ahead:

Kd (UnaG): 0.098 nM
Molecule: C=CC1=C(C)/C(=C/c2[nH]c(Cc3[nH]c(/C=C4\NC(=O)C(C)=C4C=C)c(C)c3CCC(=O)O)c(CCC(=O)O)c2C)NC1=O [bilirubin]

Kd (F-actin [3]): 18600 nM
B1: Utr261: first 261 amino acid residues of utrophin, the filament-crosslinking protein (protein, UniProt P46939 1-261, looked up, fragment)
chain: MAKYGEHEASPDNGQNEFSDIIKSRSDEHNDVQKKTFTKWINARFSKSGKPPINDMFTDLKDGRKLLDLLEGLTGTSLPKERGSTRVHALNNVNRVLQVLHQNNVELVNIGGTDIVDGNHKLTLGLLWSIILHWQVKDVMKDVMSDLQQTNSEKILLSWVRQTTRPYSQVNVLNFTTSWTDGLAFNAVLHRHKPDLFSWDKVVKMSPIERLEHAFSKAQTYLGIEKLLDPEDVAVQLPDKKSIIMYLTSLFEVLPQQVTID

Kd [5]: 0.098 nM
B3: UnaG: fluorogen-activating protein from Japanese eel muscle that reversibly binds bilirubin (protein, UniProt P0DM59 1-139, looked up)
Bilirubin-inducible …: MVEKFVGTWKIADSHNFGEYLKAIGAPKELSDGGDATTPTLYISQKDGDKMTVKIENGPPTFLDTQVKFKLGEEFDEFPSDRRKGVKSVVNLVGEKLVYVQKWDGKETTYVREIKDGKLVVTLTMGDVVAVRSYRRATE
